According to US9732072B2, “PRMT5 inhibitors and uses thereof” (Epizyme, Inc., priority 2012, dated 2017):

What was measured:
PRMT5/MEP50 = PRMT5/MEP50 (Homo sapiens (Human), UniProt O14744); experiment: PRMT5 Biochemical Assay (PRMT5/MEP50 enzyme assay on peptide substrate, 3H-SAM Flashplate); conditions: PRMT5/MEP50 4 nM, 3H-SAM 75 nM, peptide 40 nM
Source text: S-adenosylmethionine (SAM), S-adenosylhomocysteine (SAH), bicine, KCl, Tween20, dimethylsulfoxide (DMSO), bovine skin gelatin (BSG), and Tris(2-carboxyethyl)phosphine hydrochloride solution (TCEP) were purchased from Sigma-Aldrich at the highest level of purity possible. ^3H-SAM was purchase from American Radiolabeled Chemicals with a specific activity of 80 Ci/mmol. 384-well streptavidin Flashplates were purchased from PerkinElmer.
Peptide representative of human histone H4 residues 1-15 was synthesized with a C-terminal linker-affinity tag motif and a C-terminal amide cap by 21st Century Biochemicals. The peptide was high high-performance liquid chromatography (HPLC) purified to greater than 95% purity and confirmed by liquid chromatography mass spectrometry (LC-MS). The sequence was Ac-[…][K-Biot]-amide (SEQ ID NO.:3).
Full-length human PRMT5 (NM_006109.3) transcript variant 1 clone was amplified from a fetal brain cDNA library, incorporating flanking 5′ sequence encoding a FLAG tag ([…]) (SEQ ID NO.:4) fused directly to Ala 2 of PRMT5. Full-length human MEP50 (NM_024102) clone was amplified from a human testis cDNA library incorporating a 5′ sequence encoding a 6-histidine tag (MHHHHHH) (SEQ ID NO.:5) fused directly to Arg 2 of MEP50. The amplified genes were sublconed into pENTR/D/TEV (Life Technologies) and subsequently transferred by Gateway™ attL×attR recombination to pDEST8 baculvirus expression vector (Life Technologies).
Recombinant baculovirus and Baculovirus-Infected Insect Cells (BIIC) were generated according to Bac-to-Bac kit instructions (Life Technologies) and Wasilko, 2006, respectively. Protein over-expression was accomplished by infecting exponentially growing Spodoptera frugiperda (SF9) cell culture at 1.2×10^6 cell/ml with a 5000 fold dilution of BIIC stock. Infections were carried out at 27° C. for 72 hours, harvested by centrifugation, and stored at −80° C. for purification.
Flag-PRMT5/6His-MeP50 was eluted with 300 mM Imidazole in the same buffer. The purity of recovered protein was 87%. Reference: Wasilko, D. J. and S. E. Lee: “TIPS: titerless infected-cells preservation and scale-up” Bioprocess J., 5 (2006), pp. 29-32.
General Procedure for PRMT5/MEP50 Enzyme Assays on Peptide Substrates.
The assays were all performed in a buffer consisting of 20 mM Bicine (pH=7.6), 1 mM TCEP, 0.005% BSG, and 0.002% Tween20, prepared on the day of use. Compounds in 100% DMSO (1 ul) were spotted into a polypropylene 384-well V-bottom plates (Greiner) using a Platemate Plus outfitted with a 384-channel head (Thermo Scientific). DMSO (1 ul) was added to Columns 11, 12, 23, 24, rows A-H for the maximum signal control and 1 ul of SAH, a known product and inhibitor of PRMT5/MEP50, was added to columns 11, 12, 23, 24, rows I-P for the minimum signal control. A cocktail (40 ul) containing the PRMT5/MEP50 enzyme and the peptide was added by Multidrop Combi (Thermo-Fisher). The compounds were allowed to incubate with PRMT5/MEP50 for 30 min at 25 degrees Celsius, then a cocktail (10 ul) containing ^3H-SAM was added to initiate the reaction (final volume=51 ul). The final concentrations of the components were as follows: PRMT5/MEP50 was 4 nM, ^3H-SAM was 75 nM, peptide was 40 nM, SAH in the minimum signal control wells was 100 uM, and the DMSO concentration was 1%. The assays were stopped by the addition of non-radioactive SAM (10 ul) to a final concentration of 600 uM, which dilutes the ^3H-SAM to a level where its incorporation into the peptide substrate is no longer detectable. 50 ul of the reaction in the 384-well polypropylene plate was then transferred to a 384-well Flashplate and the biotinylated peptides were allowed to bind to the streptavidin surface for at least 1 hour before being washed three times with 0.1% Tween20 in a Biotek ELx405 plate washer. […]

[1] = test system: Symmetric Di-Methyl Arginine in Z-138 cells; experiment: Z-138 Methylation Assay (In Cell Western for symmetric di-methyl arginine); type: cell-based; conditions: Homo sapiens, 96 hours incubation, read-out: ICW EC50
Source text: [formula] Where top and bottom are the normally allowed to float, but may be fixed at 100 or 0 respectively in a 3-parameter fit. The Hill Coefficient normally allowed to float but may also be fixed at 1 in a 3-parameter fit. Y is the % inhibition and X is the compound concentration. Z-138 Methylation Assay
Z-138 suspension cells were purchased from ATCC (American Type Culture Collection, Manassas, Va.). RPMI/Glutamax medium, penicillin-streptomycin, heat inactivated fetal bovine serum, and D-PBS were purchased from Life Technologies, Grand Island, N.Y., USA. Odyssey blocking buffer, 800CW goat anti-rabbit IgG (H+L) antibody, and Licor Odyssey infrared scanner were purchased from Licor Biosciences, Lincoln, Nebr., USA. Symmetric di-methyl arginine antibody was purchased from EMD Millipore, Billerica, Mass., USA. […]
First, the ratio for each well was determined by:
Each plate included fourteen control wells of DMSO only treatment (minimum inhibition) as well as fourteen control wells for maximum inhibition treated with 3 μM of a reference compound (Background wells). The average of the ratio values for each control type was calculated and used to determine the percent inhibition for each test well in the plate. […] Percent inhibition was determined and IC50 curves were generated using triplicate wells per concentration of compound. […]

Z-138 cell line = experiment: Z-138 Proliferation Assay (Cell Titer Glo); type: cell-based; conditions: Homo sapiens, 120 h; Z-138 cells, 5 days, top concentration 20 μM
Source text: [formula] Z-138 Proliferation Assay
Z-138 suspension cells were purchased from ATCC (American Type Culture Collection, Manassas, Va.). RPMI/Glutamax medium, penicillin-streptomycin, heat inactivated fetal bovine serum were purchased from Life Technologies, Grand Island, N.Y., USA. V-bottom polypropylene 384-well plates were purchased from Greiner Bio-One, Monroe, N.C., USA. Cell culture 384-well white opaque plates were purchased from Perkin Elmer, Waltham, Mass., USA. Cell-Titer Glo® was purchased from Promega Corporation, Madison, Wis., USA. SpectraMax M5 plate reader was purchased from Molecular Devices LLC, Sunnyvale, Calif., USA. […]
For the assessment of the effect of compounds on the proliferation of the Z-138 cell line, exponentially growing cells were plated in 384-well white opaque plates at a density of 10,000 cells/ml in a final volume of 50 μl of assay medium. […] Cell viability was measured by quantitation of ATP present in the cell cultures, adding 35 μl of Cell Titer Glo® reagent to the cell plates. Luminescence was read in the SpectraMax M5 microplate reader. The concentration of compound inhibiting cell viability by 50% was determined using a 4-parametric fit of the normalized dose response curves.

Chain of PRMT5/MEP50 (O14744 other isoform, or with tags, fused parts or gaps): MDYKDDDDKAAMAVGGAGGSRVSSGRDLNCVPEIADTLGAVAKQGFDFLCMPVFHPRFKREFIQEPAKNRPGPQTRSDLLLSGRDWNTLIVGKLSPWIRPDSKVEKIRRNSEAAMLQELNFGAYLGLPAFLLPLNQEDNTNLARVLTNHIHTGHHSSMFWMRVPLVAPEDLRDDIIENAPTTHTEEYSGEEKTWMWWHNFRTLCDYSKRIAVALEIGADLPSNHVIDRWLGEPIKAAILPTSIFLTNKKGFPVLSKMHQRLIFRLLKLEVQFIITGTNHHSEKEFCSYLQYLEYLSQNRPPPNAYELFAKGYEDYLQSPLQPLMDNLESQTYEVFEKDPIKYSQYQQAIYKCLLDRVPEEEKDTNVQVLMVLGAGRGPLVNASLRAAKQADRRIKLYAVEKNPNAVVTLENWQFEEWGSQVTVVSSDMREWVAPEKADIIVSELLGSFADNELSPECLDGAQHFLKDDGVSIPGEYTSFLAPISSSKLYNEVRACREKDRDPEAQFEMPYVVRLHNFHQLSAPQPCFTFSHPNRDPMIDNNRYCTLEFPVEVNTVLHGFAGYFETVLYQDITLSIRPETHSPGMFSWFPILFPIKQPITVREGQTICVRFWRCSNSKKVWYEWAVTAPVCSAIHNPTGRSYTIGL
Chain of PRMT5/MEP50 (Q9BQA1 other isoform, or with tags, fused parts or gaps partner): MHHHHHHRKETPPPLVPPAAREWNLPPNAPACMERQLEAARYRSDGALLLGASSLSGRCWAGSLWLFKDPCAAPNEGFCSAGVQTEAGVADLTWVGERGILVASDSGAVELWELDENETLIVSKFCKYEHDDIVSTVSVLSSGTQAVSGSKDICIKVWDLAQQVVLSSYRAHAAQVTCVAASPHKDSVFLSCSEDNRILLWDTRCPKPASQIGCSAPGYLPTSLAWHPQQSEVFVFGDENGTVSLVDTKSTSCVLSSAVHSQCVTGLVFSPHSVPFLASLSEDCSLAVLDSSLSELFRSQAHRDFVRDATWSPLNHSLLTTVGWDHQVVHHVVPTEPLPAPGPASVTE

Compound	IC50 (PRMT5/MEP50) [nM]	EC50 [1] [nM]	EC50 (Z-138 cell line) [nM]
C[C@H](Oc1cccc2cccnc12)C(=O)NC[C@H](O)CN1Cc2ccccc2C1 [Compound 1]	1000 to 10000	–	–
C[C@@H](Oc1cccc2cccnc12)C(=O)NC[C@@H](O)CN1Cc2ccccc2C1 [Compound 3, (R)—N—((R)-2-hydroxy-3-(isoindolin-2-yl)propyl)-2-(quinolin-8-yloxy)propanamide]	1000 to 10000	–	–
C[C@H](Oc1cccc2cccnc12)C(=O)NC[C@@H](O)CN1Cc2ccccc2C1 [Compound 6]	> 10000	–	–
O=C(NCC(O)CN1Cc2ccccc2C1)c1cccc(NC2CCOCC2)c1 (stereo not shown) [Compound 8]	–	101 to 1000	–
CN1CCOc2cccc(OCC(=O)NCC(O)CN3Cc4ccccc4C3)c21 (stereo not shown) [Compound 10, N-(2-hydroxy-3-(isoindolin-2-yl)propyl)-2-((4-methyl-3,4-dihydro-2H-benzo[b][1,4]oxazin-5-yl)oxy)acetamide]	101 to 1000	101 to 1000	> 20000
Cn1cnc2ccc(-c3cccc(OC[C@@H](O)CN4Cc5ccccc5C4)c3)cc21 [Compound 14]	10000 to 50000	–	–
Cn1cnc2ccc(-c3cccc(OC[C@H](O)CN4Cc5ccccc5C4)c3)cc21 [Compound 17, (R)-1-(isoindolin-2-yl)-3-(3-(1-methyl-1H-benzo[d]imidazol-6-yl)phenoxy)propan-2-ol]	1000 to 10000	–	–
CN(C)S(=O)(=O)c1ccccc1OCC(=O)NC[C@@H](O)CN1Cc2ccccc2C1 [Compound 21]	101 to 1000	–	–
CN1CCOc2cccc(OCC(=O)NC[C@@H](O)CN3Cc4ccccc4C3)c21 [Compound 22]	101 to 1000	–	–
CN(C)S(=O)(=O)c1ccccc1OCC(=O)NC[C@H](O)CN1Cc2ccccc2C1 [Compound 23]	< 100	–	–
Cn1ncc2ccc(OCC(=O)NC[C@@H](O)CN3Cc4ccccc4C3)cc21 [Compound 25]	10000 to 50000	–	–
CN1CCOc2cccc(OCC(=O)NC[C@H](O)CN3Cc4ccccc4C3)c21 [Compound 26]	101 to 1000	–	–
Cn1ncc2ccc(OCC(=O)NC[C@H](O)CN3Cc4ccccc4C3)cc21 [Compound 27]	101 to 1000	–	–
O=C(NC[C@H](O)CN1Cc2ccccc2C1)c1ccnc(NC2CCOCC2)c1 [Compound 30]	< 100	–	–
